Measurements taken from patent US20100240642A1, “1H-Indole-2-Carboxylic Acid Derivatives Useful As PPAR Modulators” (SMITHKLINE BEECHAM CORPORATION, priority 2006, published 2010).
Read-outs that look alike come from different tables or passages of the source.

Tests used:
[1] = tested on: Male Zucker Diabetic Fatty rats; assay: In vivo evaluation: serum glucose in Zucker Diabetic Fatty rats; design: species or system rat; settings: 10 mg/kg once daily by oral gavage, 28 days, percent reduction from vehicle control at day 28 relative to normalization (140 mg/dL)
Protocol: Male Zucker Diabetic Fatty rats were lightly anesthetized with isofluorane gas and bleed by tail vein to obtain postprandial baseline concentrations for serum glucose, serum lipids and insulin. Animals were baseline matched by serum glucose and randomized into vehicle or treatment groups with compound administration by oral gavage beginning at 6.5 weeks of age. Selected compounds were administered once daily at 10 mg/kg in 25 mM N-Methyl-Glucamine with 5% w/v Solutol HS15. After 28 consecutive days of treatment, blood samples were obtained and analyzed for serum glucose. Values in Table 1 for % Glucose reduction represent a summary of the percent reduction from vehicle control animals at day 28 relative to normalization defined in this model as serum glucose levels of 140 mg/dL.

hPPARγ receptor = biological target: T1, hPPARγ receptor (Homo sapiens, UniProt P37231); assay: PPARγ Cell-based luciferase assay
T1 construct: expressed in transfected cells; host or cells: CV-1 (African Green Monkey kidney, ATCC CCL-70)
T1 sequence (P37231 172-475 isoform P37231-2): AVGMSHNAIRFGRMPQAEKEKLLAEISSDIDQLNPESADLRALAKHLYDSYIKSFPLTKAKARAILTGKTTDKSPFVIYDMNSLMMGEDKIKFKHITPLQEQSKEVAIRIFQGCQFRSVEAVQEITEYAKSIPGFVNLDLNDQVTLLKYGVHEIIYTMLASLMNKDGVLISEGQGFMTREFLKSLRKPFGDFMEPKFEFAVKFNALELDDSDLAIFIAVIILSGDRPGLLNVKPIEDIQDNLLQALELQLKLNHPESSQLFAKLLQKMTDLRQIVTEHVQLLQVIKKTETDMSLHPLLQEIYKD
Summary of the method: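 CV-1 cells were transiently transfected with GAL4-DBD/human PPARγ LBD (172-475) and a UAS-tk-firefly luciferase reporter. Cells were plated at 10,000/well in 5% charcoal-stripped FBS medium onto 11-point, 3-fold compound dilutions and incubated overnight at 37 °C. Luminescence was read after Steady-Glo lysis, with activation scored relative to rosiglitazone as full agonist.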

[2] = CV-1 cells transfected with GAL4-hPPARγ LBD and UAStkLuc, at concentrations of 10^−6 M or less, read-out: agonism of the hPPARγ receptor (activation relative to full agonist rosiglitazone)

SMILES	Emax (hPPARγ receptor; [2])	% Glucose Reduction [1]	Emax (hPPARγ receptor; CV-1, read-out: agonism of the hPPARγ receptor (activation relative to full agonist rosiglitazone))
CC(C)(C)c1ccc(-c2c(C(=O)O)n(Cc3cc(OCCN4CCOCC4)cc(OCC4CC4)c3)c3ccccc23)cc1 [Example 42, 1-[(3-[(cyclopropylmethyl)oxy]-5-{[2-(4-morpholinyl)ethyl]oxy}phenyl)methyl]-3-[4-(1,1-dimethylethyl)phenyl]-1H-indole-2-carboxylic acid]	20 to 80%	82%	
COCCOc1cc(Cn2c(C(=O)O)c(-c3ccc(C(C)(C)C)cc3)c3ccccc32)cc(N2CCOCC2)c1 [Example 68, 3-[4-(1,1-dimethylethyl)phenyl]-1-{[3-{[2-(methyloxy)ethyl]oxy}-5-(4-morpholinyl)phenyl]methyl}-1H-indole-2-carboxylic acid]	20 to 80%	95%	
COCCOc1cc(Cn2c(C(=O)O)c(-c3ccc(C(C)(C)C)cc3)c3ccccc32)cc(OCC2CC2)c1 [Example 2, 1-[(3-[(cyclopropylmethyl)oxy]-5-{[2-(methyloxy)ethyl]oxy}phenyl)methyl]-3-[4-(1,1-dimethylethyl)phenyl]-1H-indole-2-carboxylic acid]	20 to 80%	96%	
CC(C)(C)c1ccc(-c2c(C(=O)O)n(Cc3cccc(N4CCOCC4)c3)c3ccccc23)cc1 [Example 26, 3-[4-(1,1-dimethylethyl)phenyl]-1-{[3-(4-morpholinyl)phenyl]methyl}-1H-indole-2-carboxylic acid]	20 to 80%		
COCCOc1cc(Cn2c(C(=O)O)c(-c3ccc(C(C)(C)C)cc3)c3ccccc32)cc(OC(=O)N2CCN(C)CC2)c1 [Example 50, 3-[4-(1,1-dimethylethyl)phenyl]-1-[(3-{[2-(methyloxy)ethyl]oxy}-5-{[(4-methyl-1-piperazinyl)carbonyl]oxy}phenyl)methyl]-1H-indole-2-carboxylic acid]			20 to 80%
CC(C)(C)c1ccc(-c2c(C(=O)O)n(Cc3cccc(-c4ccc(S(C)(=O)=O)cc4)c3)c3ccccc23)cc1 [Example 24, 3-[4-(1,1-dimethylethyl)phenyl]-1-{[4′-(methylsulfonyl)-3-biphenylyl]methyl}-1H-indole-2-carboxylic acid]	20 to 80%	79%	
CC(C)(C)c1ccc(-c2c(C(=O)O)n(Cc3cccc(N4CCSCC4)c3)c3ccccc23)cc1 [Example 44, 3-[4-(1,1-dimethylethyl)phenyl]-1-{[3-(4-thiomorpholinyl)phenyl]methyl}-1H-indole-2-carboxylic acid]	20 to 80%		

More lines, main results first:

Emax (hPPARγ receptor; [2])	SMILES	% Glucose Reduction [1]	Emax (hPPARγ receptor; CV-1, read-out: agonism of the hPPARγ receptor (activation relative to full agonist rosiglitazone))
20 to 80%	COc1cc(Cn2c(C(=O)O)c(-c3ccc(C(C)(C)C)cc3)c3ccccc32)cc(-c2ccc(C(=O)O)cc2)c1 [Example 18, 1-{[4′-carboxy-5-(methyloxy)-3-biphenylyl]methyl}-3-[4-(1,1-dimethylethyl)phenyl]-1H-indole-2-carboxylic acid]	44%	
20 to 80%	Cc1ccc(-c2ccc(C(=O)O)cc2)cc1Cn1c(C(=O)O)c(-c2ccc(C(C)(C)C)cc2)c2ccccc21 [Example 11, 1-[(4′-carboxy-4-methyl-3-biphenylyl)methyl]-3-[4-(1,1-dimethylethyl)phenyl]-1H-indole-2-carboxylic acid]	49%	
20 to 80%	Cc1ccc(-c2cccc(C(=O)NCc3cccs3)c2)cc1Cn1c(C(=O)O)c(-c2ccc(C(C)(C)C)cc2)c2ccccc21 [Example 30, 3-[4-(1,1-dimethylethyl)phenyl]-1-[(4-methyl-3′-{[(2-thienylmethyl)amino]carbonyl}-3-biphenylyl)methyl]-1H-indole-2-carboxylic acid]		
20 to 80%	CC(C)(C)c1ccc(-c2c(C(=O)O)n(Cc3cc(OCC4CC4)cc(-c4ccc(C(=O)O)cc4)c3)c3ccccc23)cc1 [Example 15, 1-({4′-carboxy-5-[(cyclopropylmethyl)oxy]-3-biphenylyl}methyl)-3-[4-(1,1-dimethylethyl)phenyl]-1H-indole-2-carboxylic acid]		
